The source of these data is patent US9796711B2, “Substituted pyrazolo[3,4-b]pyridin-6-carboxylic acids and method of use” (AbbVie S.àr.l., priority 2015, dated 2017).

Test [1] concerns the target T1, ΔF508-CFTR (Homo sapiens, UniProt P13569, DEL508-508).
T1 construct: host or cells: CFBE41o-, doxycycline-inducible
Description: CFTR cell surface levels using HRP-tagged ΔF508-CFTR expressing CFBE cells, in the presence of a co-corrector. It counts as cell-based. The conditions noted are these: HRP-tagged ΔF508-CFTR expressing CFBE cells, in the presence of 3 μM co-corrector; for EC50: read-out: EC50. The essentials:
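Cells were seeded with 0.5 μg/mL doxycycline and held 68 h at 37 °C. Test compounds plus 3 μM co-corrector (final 0.1% DMSO) were then added for 20 h at 33 °C. Washed cells received HRP substrate, and luminescence was normalized between DMSO and 3 μM co-corrector controls.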

For test [2], the target named is T1, ΔF508-CFTR. Description: CFTR cell surface levels using HRP-tagged ΔF508-CFTR expressing CFBE cells, intrinsic corrector capacity. Format: cell-based. The following applies: for EC50: read-out: EC50. In outline: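 Here the cells express ΔF508-CFTR with horseradish peroxidase inserted in extracellular loop 4, so only rescued channel at the surface gives luminescent signal. Compounds act on their own, 20 h at the reduced temperature of 33 °C; values are percent activity relative to DMSO and a 3 μM corrector.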

The mark [3] stands for this setting: HRP-tagged ΔF508-CFTR CFBE41o- cells, compounds alone (intrinsic corrector capacity), 20 hours at 33° C., positive control 3 μM corrector.
Where [4] appears, read: HRP-tagged ΔF508-CFTR CFBE41o- cells, compounds alone (intrinsic corrector capacity), 20 hours at 33° C.
[5] abbreviates: HRP-tagged ΔF508-CFTR expressing CFBE cells, intrinsic corrector capacity (no co-corrector), 33° C., 20 hours.

T1 sequence (P13569 with tags, fused parts or gaps DEL508-508): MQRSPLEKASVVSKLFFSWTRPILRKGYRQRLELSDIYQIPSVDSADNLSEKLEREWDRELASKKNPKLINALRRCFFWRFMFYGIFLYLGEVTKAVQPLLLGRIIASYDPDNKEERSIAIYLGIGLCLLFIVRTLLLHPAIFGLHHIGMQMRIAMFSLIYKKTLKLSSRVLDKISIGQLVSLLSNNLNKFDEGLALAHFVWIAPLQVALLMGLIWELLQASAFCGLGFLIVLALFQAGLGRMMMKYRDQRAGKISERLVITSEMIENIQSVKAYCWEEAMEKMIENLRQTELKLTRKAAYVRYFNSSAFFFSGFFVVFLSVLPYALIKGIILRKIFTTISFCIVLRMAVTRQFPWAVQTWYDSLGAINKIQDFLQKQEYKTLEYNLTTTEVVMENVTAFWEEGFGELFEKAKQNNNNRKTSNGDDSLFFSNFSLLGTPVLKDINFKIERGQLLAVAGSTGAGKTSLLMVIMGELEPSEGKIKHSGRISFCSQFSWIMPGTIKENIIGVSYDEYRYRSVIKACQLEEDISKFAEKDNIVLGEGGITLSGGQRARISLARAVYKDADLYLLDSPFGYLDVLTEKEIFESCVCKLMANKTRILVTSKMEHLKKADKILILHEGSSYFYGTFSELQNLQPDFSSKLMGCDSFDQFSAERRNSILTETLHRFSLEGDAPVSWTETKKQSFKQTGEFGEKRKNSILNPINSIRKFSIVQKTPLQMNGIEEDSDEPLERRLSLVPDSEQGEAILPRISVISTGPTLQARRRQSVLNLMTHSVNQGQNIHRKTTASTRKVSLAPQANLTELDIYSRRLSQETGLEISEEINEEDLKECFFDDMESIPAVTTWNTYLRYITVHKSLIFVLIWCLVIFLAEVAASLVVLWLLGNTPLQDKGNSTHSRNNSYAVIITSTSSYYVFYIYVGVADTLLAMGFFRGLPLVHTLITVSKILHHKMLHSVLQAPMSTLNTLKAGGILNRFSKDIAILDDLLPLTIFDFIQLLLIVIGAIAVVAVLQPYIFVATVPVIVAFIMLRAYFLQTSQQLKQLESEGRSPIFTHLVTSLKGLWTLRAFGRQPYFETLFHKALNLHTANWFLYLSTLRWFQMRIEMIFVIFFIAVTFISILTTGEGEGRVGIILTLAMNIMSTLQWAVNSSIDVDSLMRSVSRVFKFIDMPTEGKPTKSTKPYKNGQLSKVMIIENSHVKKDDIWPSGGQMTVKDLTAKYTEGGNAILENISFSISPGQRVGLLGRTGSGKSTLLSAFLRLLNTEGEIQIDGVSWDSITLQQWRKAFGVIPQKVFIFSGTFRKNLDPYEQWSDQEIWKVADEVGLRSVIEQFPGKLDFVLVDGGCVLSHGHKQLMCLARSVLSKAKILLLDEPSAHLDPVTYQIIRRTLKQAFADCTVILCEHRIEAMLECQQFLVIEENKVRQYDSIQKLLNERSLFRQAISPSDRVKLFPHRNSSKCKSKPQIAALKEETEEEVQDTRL

Turning to `O=C(O)c1cc(-c2ccc(N3CCOCC3)cc2)c2c(C3CCCO3)nn(-c3ccccc3)c2n1` (stereo not shown) [compound 186, 4-[4-(morpholin-4-yl)phenyl]-3-(oxolan-2-yl)-1-phenyl-1H-pyrazolo[3,4-b]pyridine-6-carboxylic acid], the “% Activation” value on ΔF508-CFTR [1] is reported as 378.4%; at ΔF508-CFTR [2] (setting [3]), 168.7%. Also, the figures for the EC50 at ΔF508-CFTR [1] and on ΔF508-CFTR [2] (setting [4]) were 1260 nM and 1870 nM, respectively.
In the same order, the values of `Cc1cccc(-n2nc(C(C)C)c3c(N4CCC(F)(F)CC4)cc(C(=O)O)nc32)c1` [compound 210, 4-(4,4-difluoropiperidin-1-yl)-1-(3-methylphenyl)-3-(propan-2-yl)-1H-pyrazolo[3,4-b]pyridine-6-carboxylic acid] are 261%, 66.65%, 3340 nM and 1180 nM.
For `CC(C)c1nn(-c2ccc(F)c(F)c2)c2nc(C(=O)O)cc(-c3ccc(N4CCC(C#N)CC4)nc3)c12` [compound 279, 4-[6-(4-cyanopiperidin-1-yl)pyridin-3-yl]-1-(3,4-difluorophenyl)-3-(propan-2-yl)-1H-pyrazolo[3,4-b]pyridine-6-carboxylic acid], in that order: 427.65%, 257.8%, 499 nM and 900 nM.
For the compound `CS(=O)(=O)C1(COc2cc(C(=O)O)nc3c2c(C2CCC2)nn3-c2ccccc2)CCOCC1` [compound 627, 3-cyclobutyl-4-{[4-(methanesulfonyl)oxan-4-yl]methoxy}-1-phenyl-1H-pyrazolo[3,4-b]pyridine-6-carboxylic acid], on ΔF508-CFTR [1], the “% Activation” value was 126.25% and the EC50 (usually the concentration needed to bring the measured effect to its halfway point) was above 10000 nM. Further, on ΔF508-CFTR [2] (setting [5]), the “% Activation” value was found to be 9.221% and the EC50 is above 10000 nM.
`CC1(C)OC[C@@H](COc2cc(C(=O)O)nc3c2c(C2CCC2)nn3-c2ccccc2)O1` [compound 618, 3-cyclobutyl-4-{[(4R)-2,2-dimethyl-1,3-dioxolan-4-yl]methoxy}-1-phenyl-1H-pyrazolo[3,4-b]pyridine-6-carboxylic acid]: at ΔF508-CFTR [1], the “% Activation” value is on record as 315.25% and the EC50 stood at 351 nM. On ΔF508-CFTR [2] (setting [5]), the “% Activation” value came out at 105.9% and the EC50 worked out at 547 nM.
As to `Cc1nn(-c2ccccc2)c2nc(C(=O)O)cc(-c3ccc(NC4CCC4)cc3)c12` [compound 96, 4-[4-(cyclobutylamino)phenyl]-3-methyl-1-phenyl-1H-pyrazolo[3,4-b]pyridine-6-carboxylic acid], the “% Activation” value was 329.75% on ΔF508-CFTR [1] and 141.5% on ΔF508-CFTR [2] (setting [3]). Moreover, the EC50 is 1200 nM on ΔF508-CFTR [1] and 1530 nM on ΔF508-CFTR [2] (setting [4]).
Turning to `O=C(O)c1cc(OCCCN2CCCCC2)c2c(C3CCC3)nn(-c3ccccc3)c2n1` [compound 642, 3-cyclobutyl-1-phenyl-4-[3-(piperidin-1-yl)propoxy]-1H-pyrazolo[3,4-b]pyridine-6-carboxylic acid], on ΔF508-CFTR [1], the “% Activation” value was determined as 281.95% and the EC50 is 2400 nM. Further, at ΔF508-CFTR [2] (setting [5]), the “% Activation” value was 125.9% and the EC50 was determined as 3330 nM.
For `O=C(O)c1cc(N2CC(OCC(F)F)C2)c2c(C3CCC3)nn(-c3ccccc3)c2n1` [compound 513, 3-cyclobutyl-4-[3-(2,2-difluoroethoxy)azetidin-1-yl]-1-phenyl-1H-pyrazolo[3,4-b]pyridine-6-carboxylic acid], in that order: 349.6%, 472 nM, 141.7% and 371 nM.
Consider `CC(C)c1nn(-c2cc(F)cc(F)c2)c2nc(C(=O)O)cc(-c3cnc(N(C)C4CCOCC4)nc3)c12` [compound 317, 1-(3,5-difluorophenyl)-4-{2-[methyl(oxan-4-yl)amino]pyrimidin-5-yl}-3-(propan-2-yl)-1H-pyrazolo[3,4-b]pyridine-6-carboxylic acid], for which the results for the “% Activation” value on ΔF508-CFTR [1] and on ΔF508-CFTR [2] (setting [3]) were 433.4% and 216.25%, respectively. Also, the EC50 was 972 nM on ΔF508-CFTR [1] and 695 nM on ΔF508-CFTR [2] (setting [4]).
Consider `O=C(O)c1cc(N2CCC(CN3CC[C@@H](F)C3)CC2)c2c(C3CCC3)nn(-c3ccccc3)c2n1` [compound 832, 3-cyclobutyl-4-(4-{[(3R)-3-fluoropyrrolidin-1-yl]methyl}piperidin-1-yl)-1-phenyl-1H-pyrazolo[3,4-b]pyridine-6-carboxylic acid], for which, on ΔF508-CFTR [1], the “% Activation” value worked out at 526.6% and the EC50 stood at 1070 nM. Moreover, at ΔF508-CFTR [2] (setting [5]), the “% Activation” value is 250.5% and the EC50 is 151 nM.
As for `Cc1nn(-c2ccccc2)c2nc(C(=O)O)cc(C(=O)N3CCCCC3)c12` [compound 158, 3-methyl-1-phenyl-4-(piperidine-1-carbonyl)-1H-pyrazolo[3,4-b]pyridine-6-carboxylic acid], the figures for the “% Activation” value at ΔF508-CFTR [1] and at ΔF508-CFTR [2] (setting [3]) were 112.2% and 1.521%, respectively. Besides, the EC50 at ΔF508-CFTR [1] and on ΔF508-CFTR [2] (setting [4]) was above 10000 nM in each case.
As for `CC(C)c1nn(-c2ccc(F)cc2)c2nc(C(=O)O)cc(-c3cnc(N(C)C4CCOCC4)nc3)c12` [compound 280, 1-(4-fluorophenyl)-4-{2-[methyl(oxan-4-yl)amino]pyrimidin-5-yl}-3-(propan-2-yl)-1H-pyrazolo[3,4-b]pyridine-6-carboxylic acid], the results for the “% Activation” value on ΔF508-CFTR [1] and at ΔF508-CFTR [2] (setting [3]) were 440.83% and 238.6%, respectively. For the same compound, the EC50 at ΔF508-CFTR [1] came to 249 nM; at ΔF508-CFTR [2] (setting [4]) it was 485 nM.
`COCCN(C)c1ccc(-c2cc(C(=O)O)nc3c2c(C(C)C)nn3C2CCCCC2)cc1` [compound 184, 1-cyclohexyl-4-{4-[(2-methoxyethyl)(methyl)amino]phenyl}-3-(propan-2-yl)-1H-pyrazolo[3,4-b]pyridine-6-carboxylic acid]: the entries for the “% Activation” value on ΔF508-CFTR [1] and at ΔF508-CFTR [2] (setting [3]) were 377.4% and 170.25%, respectively. Further, the EC50 is 677 nM on ΔF508-CFTR [1] and 942 nM at ΔF508-CFTR [2] (setting [4]).
Take `CC(C)CN1C[C@@H]2CN(c3cc(C(=O)O)nc4c3c(C(C)C)nn4-c3ccc(F)cc3)C[C@@H]2C1` [compound 796, 1-(4-fluorophenyl)-4-[(3aR,6aS)-5-(2-methylpropyl)hexahydropyrrolo[3,4-c]pyrrol-2(1H)-yl]-3-(propan-2-yl)-1H-pyrazolo[3,4-b]pyridine-6-carboxylic acid]: at ΔF508-CFTR [1], the “% Activation” value is recorded as 358% and the EC50 is 1670 nM. Further, on ΔF508-CFTR [2] (setting [5]), the “% Activation” value worked out at 169.7% and the EC50 worked out at 1670 nM.
As for `O=C(O)c1cc(N2CCC(CN3CC[C@H](F)C3)CC2)c2c(C3CCC3)nn(-c3ccccc3)c2n1` [compound 833, 3-cyclobutyl-4-(4-{[(3S)-3-fluoropyrrolidin-1-yl]methyl}piperidin-1-yl)-1-phenyl-1H-pyrazolo[3,4-b]pyridine-6-carboxylic acid], the “% Activation” value on ΔF508-CFTR [1] is 443.15%; at ΔF508-CFTR [2] (setting [5]), 231.9%. Further, the EC50 on ΔF508-CFTR [1] stood at 142 nM; on ΔF508-CFTR [2] (setting [5]) it was 187 nM.
For the compound `CN(C)c1ccc(-n2nc(C3CCC3)c3c(-c4ccc(N5CCOCC5)cc4)cc(C(=O)O)nc32)cc1` [compound 357, 3-cyclobutyl-1-[4-(dimethylamino)phenyl]-4-[4-(morpholin-4-yl)phenyl]-1H-pyrazolo[3,4-b]pyridine-6-carboxylic acid], the “% Activation” value at ΔF508-CFTR [1] is recorded as 274.8%; at ΔF508-CFTR [2] (setting [3]), 113.47%. Besides, the EC50 was determined as 806 nM on ΔF508-CFTR [1] and 885 nM at ΔF508-CFTR [2] (setting [4]).
